Assays:
[1] = compound: NC(=O)CCCCC1CCSS1 [lipoamide]; experiment: thermal stability z-score vs DMSO; higher = more thermally stabilized by treatment; details: HeLa, lipoamide concentration 100 µM
Protocol: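 Cellular thermal proteome profiling in HeLa cells. Cells were treated with 100 µM lipoamide for 1 h, with or without 1 mM arsenate for a further 1 h, then heated to ten temperatures (37-66.3 °C), and soluble protein was quantified by TMT mass spectrometry relative to 0.1% DMSO controls. The thermal stability score (sum of log2 fold changes minus the abundance score) was transformed to a z-score; mean of n = 3 experiments.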

[2] = compound: O=[As]([O-])(O)O.[K+] [potassium arsenate]; experiment: as above; details: HeLa; arsenate concentration 1 mM
Protocol: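 Cellular thermal proteome profiling in HeLa cells treated with 1 mM arsenate for 1 h (DMSO pretreatment), heated to ten temperatures (37-66.3 °C). Soluble protein was quantified by TMT mass spectrometry relative to DMSO controls; the thermal stability score was transformed to a z-score; mean of n = 3 experiments.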

[3] = arsenate co-treatment: 1 mM arsenate 1 h
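Also: each temperature applied for 3 min, abundance score taken as mean log2 fold change at the two lowest temperatures, z-score obtained by mean subtraction and division by SD.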

UniProt Q9Y2Z0, sequence (Q9Y2Z0 whole entry): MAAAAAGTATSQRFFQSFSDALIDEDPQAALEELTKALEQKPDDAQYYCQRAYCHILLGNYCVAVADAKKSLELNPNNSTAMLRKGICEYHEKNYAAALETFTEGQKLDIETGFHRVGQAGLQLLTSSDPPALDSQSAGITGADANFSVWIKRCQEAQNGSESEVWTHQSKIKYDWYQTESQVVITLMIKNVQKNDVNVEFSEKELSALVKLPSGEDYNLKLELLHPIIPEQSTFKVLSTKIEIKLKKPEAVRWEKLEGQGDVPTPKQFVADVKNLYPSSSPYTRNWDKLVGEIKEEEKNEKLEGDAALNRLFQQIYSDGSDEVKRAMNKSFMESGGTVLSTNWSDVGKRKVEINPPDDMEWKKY
UniProt Q96EY1, sequence (Q96EY1 whole entry): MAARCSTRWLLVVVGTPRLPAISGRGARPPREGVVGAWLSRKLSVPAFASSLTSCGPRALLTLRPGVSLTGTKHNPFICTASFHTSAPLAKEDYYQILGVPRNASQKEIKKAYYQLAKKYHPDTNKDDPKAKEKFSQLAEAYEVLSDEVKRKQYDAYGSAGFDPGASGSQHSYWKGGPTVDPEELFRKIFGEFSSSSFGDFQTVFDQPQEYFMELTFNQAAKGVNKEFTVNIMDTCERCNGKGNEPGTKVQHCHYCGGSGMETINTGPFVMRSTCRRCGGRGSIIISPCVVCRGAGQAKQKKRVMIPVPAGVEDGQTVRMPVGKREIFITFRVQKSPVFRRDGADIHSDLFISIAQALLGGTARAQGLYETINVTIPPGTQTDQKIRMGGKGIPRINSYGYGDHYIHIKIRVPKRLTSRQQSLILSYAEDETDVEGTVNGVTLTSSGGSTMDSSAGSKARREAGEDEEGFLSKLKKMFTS
UniProt A6NDU8, sequence (A6NDU8 whole entry): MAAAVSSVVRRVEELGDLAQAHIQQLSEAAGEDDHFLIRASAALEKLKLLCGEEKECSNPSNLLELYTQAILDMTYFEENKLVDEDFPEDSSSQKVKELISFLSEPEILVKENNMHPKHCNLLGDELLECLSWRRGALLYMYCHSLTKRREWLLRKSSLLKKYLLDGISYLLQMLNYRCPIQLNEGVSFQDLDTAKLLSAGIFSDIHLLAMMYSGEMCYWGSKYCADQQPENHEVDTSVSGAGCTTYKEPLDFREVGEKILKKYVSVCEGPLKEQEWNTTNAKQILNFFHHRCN
UniProt P05198, sequence (P05198 whole entry): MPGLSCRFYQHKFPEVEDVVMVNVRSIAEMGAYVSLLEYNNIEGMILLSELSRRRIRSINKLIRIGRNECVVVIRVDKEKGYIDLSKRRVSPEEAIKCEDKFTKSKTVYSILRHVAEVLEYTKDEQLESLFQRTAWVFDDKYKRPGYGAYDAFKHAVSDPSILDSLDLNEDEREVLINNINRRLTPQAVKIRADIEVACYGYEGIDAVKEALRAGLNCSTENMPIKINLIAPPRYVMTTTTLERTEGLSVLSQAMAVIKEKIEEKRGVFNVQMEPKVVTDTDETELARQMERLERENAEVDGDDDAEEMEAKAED
UniProt Q9NYV6, sequence (Q9NYV6 whole entry): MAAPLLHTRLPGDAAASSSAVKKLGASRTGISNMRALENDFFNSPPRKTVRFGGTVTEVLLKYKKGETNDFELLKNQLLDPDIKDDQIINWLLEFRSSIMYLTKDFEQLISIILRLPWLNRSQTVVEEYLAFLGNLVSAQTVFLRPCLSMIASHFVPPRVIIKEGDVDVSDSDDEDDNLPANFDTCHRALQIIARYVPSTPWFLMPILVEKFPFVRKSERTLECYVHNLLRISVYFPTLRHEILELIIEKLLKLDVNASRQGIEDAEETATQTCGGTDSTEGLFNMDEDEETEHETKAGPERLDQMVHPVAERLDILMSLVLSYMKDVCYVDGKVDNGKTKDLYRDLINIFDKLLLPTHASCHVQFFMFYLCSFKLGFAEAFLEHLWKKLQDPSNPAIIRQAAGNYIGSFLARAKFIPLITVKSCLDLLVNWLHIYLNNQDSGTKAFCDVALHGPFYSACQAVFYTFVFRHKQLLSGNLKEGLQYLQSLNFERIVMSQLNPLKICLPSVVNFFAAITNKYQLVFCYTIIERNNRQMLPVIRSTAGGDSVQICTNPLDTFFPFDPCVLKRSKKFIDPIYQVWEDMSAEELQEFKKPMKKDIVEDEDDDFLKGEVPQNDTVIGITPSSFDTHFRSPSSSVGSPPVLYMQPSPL
UniProt Q14CZ7, sequence (Q14CZ7 whole entry): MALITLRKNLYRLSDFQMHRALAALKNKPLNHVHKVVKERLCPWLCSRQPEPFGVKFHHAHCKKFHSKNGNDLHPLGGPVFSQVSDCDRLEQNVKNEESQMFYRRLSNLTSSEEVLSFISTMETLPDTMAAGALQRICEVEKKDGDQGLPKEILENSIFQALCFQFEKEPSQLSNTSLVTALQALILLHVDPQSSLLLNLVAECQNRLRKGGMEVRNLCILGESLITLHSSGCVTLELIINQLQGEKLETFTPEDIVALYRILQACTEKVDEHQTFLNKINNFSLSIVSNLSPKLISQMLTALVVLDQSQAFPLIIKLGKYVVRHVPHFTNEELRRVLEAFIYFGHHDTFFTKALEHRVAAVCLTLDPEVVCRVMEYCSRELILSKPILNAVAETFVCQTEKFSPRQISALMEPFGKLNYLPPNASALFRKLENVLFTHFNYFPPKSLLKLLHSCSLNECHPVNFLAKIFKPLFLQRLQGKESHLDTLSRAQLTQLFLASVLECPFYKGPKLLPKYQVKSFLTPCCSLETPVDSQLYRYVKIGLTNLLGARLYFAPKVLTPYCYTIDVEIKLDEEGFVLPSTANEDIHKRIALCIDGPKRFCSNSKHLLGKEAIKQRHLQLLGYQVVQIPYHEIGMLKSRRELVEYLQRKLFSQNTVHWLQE
UniProt Q9UHD1, sequence (Q9UHD1 whole entry): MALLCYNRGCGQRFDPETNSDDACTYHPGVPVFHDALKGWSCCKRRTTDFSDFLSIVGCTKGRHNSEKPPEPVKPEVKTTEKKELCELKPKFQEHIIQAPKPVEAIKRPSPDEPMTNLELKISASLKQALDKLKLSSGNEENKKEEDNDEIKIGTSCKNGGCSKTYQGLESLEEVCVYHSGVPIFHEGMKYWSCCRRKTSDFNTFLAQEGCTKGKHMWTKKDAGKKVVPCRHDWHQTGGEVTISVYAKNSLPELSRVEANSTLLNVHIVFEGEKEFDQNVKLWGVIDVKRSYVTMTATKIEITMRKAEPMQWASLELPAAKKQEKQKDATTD
UniProt P04844, sequence (P04844 whole entry): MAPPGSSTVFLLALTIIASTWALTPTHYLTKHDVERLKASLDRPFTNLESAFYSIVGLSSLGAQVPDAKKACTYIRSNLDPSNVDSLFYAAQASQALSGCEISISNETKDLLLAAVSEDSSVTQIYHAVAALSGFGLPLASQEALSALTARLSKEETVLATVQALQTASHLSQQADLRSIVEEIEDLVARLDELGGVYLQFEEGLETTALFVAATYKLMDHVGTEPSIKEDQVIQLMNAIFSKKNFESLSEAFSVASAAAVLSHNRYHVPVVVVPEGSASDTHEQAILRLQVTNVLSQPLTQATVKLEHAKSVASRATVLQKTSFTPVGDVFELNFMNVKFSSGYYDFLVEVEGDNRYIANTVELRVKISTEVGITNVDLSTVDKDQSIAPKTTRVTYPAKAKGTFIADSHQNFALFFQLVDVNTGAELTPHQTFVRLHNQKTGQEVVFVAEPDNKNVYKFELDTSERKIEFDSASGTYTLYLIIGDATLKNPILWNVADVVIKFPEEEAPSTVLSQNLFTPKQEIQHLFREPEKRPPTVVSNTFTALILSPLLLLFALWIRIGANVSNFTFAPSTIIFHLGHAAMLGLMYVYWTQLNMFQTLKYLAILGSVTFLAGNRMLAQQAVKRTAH
UniProt Q9H0F7, sequence (Q9H0F7 whole entry): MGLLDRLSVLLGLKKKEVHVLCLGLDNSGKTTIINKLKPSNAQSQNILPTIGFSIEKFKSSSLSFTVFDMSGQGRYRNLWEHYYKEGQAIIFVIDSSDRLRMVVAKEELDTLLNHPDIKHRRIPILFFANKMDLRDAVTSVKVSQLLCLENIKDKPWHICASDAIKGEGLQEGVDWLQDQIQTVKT
UniProt P06576, sequence (P06576 whole entry): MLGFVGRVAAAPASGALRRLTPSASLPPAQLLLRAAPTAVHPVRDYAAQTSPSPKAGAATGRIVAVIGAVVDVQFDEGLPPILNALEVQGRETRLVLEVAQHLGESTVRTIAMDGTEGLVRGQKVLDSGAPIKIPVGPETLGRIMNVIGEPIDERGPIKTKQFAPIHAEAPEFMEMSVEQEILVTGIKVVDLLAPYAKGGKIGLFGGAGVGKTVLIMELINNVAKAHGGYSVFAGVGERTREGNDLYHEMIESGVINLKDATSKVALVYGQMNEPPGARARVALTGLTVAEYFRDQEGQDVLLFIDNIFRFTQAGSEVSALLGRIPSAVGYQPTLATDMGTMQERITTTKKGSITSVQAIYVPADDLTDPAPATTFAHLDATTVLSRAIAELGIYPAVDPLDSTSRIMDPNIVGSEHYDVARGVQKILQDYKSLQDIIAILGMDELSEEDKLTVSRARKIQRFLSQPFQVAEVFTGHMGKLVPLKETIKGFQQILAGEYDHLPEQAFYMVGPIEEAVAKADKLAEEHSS
UniProt Q9H061, sequence (Q9H061 whole entry): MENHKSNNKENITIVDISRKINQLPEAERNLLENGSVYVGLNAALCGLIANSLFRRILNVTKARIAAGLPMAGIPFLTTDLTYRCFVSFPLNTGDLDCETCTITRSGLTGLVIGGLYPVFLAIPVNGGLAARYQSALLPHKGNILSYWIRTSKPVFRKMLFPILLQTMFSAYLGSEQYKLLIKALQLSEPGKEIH
UniProt Q9NX00, sequence (Q9NX00 whole entry): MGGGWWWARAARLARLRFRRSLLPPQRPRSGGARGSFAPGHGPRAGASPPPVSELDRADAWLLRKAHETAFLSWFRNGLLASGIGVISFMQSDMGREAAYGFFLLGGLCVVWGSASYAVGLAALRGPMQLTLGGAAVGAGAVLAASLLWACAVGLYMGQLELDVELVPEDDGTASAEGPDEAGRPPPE

Row | Target | thermal stability z-score [1, 3] | thermal stability z-score ([1]; arsenate co-treatment: none) | thermal stability z-score [2]
1 | CHORDC1 (UniProt Q9UHD1) | 0.149 | 0.043 | -0.23
2 | TMEM126A (UniProt Q9H061) | 0.676 | 0.815 | 0.231
3 | ANKZF1 (UniProt Q9H8Y5) | 0.373 | 0.0149 | 0.0789
4 | ADO (UniProt Q96SZ5) | 1.62 | 1.31 | -0.401
5 | TMEM160 (UniProt Q9NX00) | -0.0998 | 0.628 | 0.0213
6 | BUB3 (UniProt O43684) | -0.0475 | -0.134 | -0.833
7 | PMM1 (UniProt Q92871) | -0.14 | 0.072 | 0.274
8 | RC3H1 (UniProt Q5TC82) | -0.195 | -0.0428 | -0.351
9 | IARS (UniProt P41252) | -0.197 | -0.0191 | 0.763
10 | SCYL1 (UniProt Q96KG9) | -0.269 | -0.198 | -0.278
11 | ELMSAN1 (UniProt Q6PJG2) | 0.273 | 0.0593 | -0.16
12 | CHD8 (UniProt Q9HCK8) | -0.13 | -0.00227 | 0.147
13 | NFIB (UniProt O00712) | -1.17 | -0.437 | -0.0229
14 | TNFRSF10B (UniProt O14763) | -0.753 | -0.414 | 0.582
15 | CTSD (UniProt P07339) | 0.0179 | -0.0567 | -0.598
16 | BTBD1 (UniProt Q9H0C5) | -0.0349 | 0.00713 | 0.0567
17 | EIF2S1 (UniProt P05198) | -0.375 | -0.142 | 0.0905
18 | CRELD2 (UniProt Q6UXH1) | -6.65 | -6.33 | -0.0409
19 | RBM27 (UniProt Q9P2N5) | -0.453 | -0.373 | -0.145
20 | EGFR (UniProt P00533) | -1.07 | -0.989 | -1.02
21 | TRIP10 (UniProt Q15642) | 0.15 | 0.0699 | -0.0864
22 | MCAM (UniProt P43121) | 0.197 | -0.281 | 0.512
23 | RPS5 (UniProt P46782) | 0.607 | 0.458 | -0.546
24 | NOL11 (UniProt Q9H8H0) | 0.118 | 0.00868 | -0.0716
25 | PLXND1 (UniProt Q9Y4D7) | -0.194 | -0.712 | 0.534
26 | ANKRD40 (UniProt Q6AI12) | 0.246 | 0.087 | 0.146
27 | DNAJA3 (UniProt Q96EY1) | -1.12 | -0.564 | 0.258
28 | TLDC1 (UniProt Q6P9B6) | -0.455 | -0.204 | -0.238

Row | Target | thermal stability z-score [1, 3] | thermal stability z-score ([1]; arsenate co-treatment: none) | thermal stability z-score [2]
29 | YIPF3 (UniProt Q9GZM5) | -0.157 | 0.0301 | -0.0851
30 | ARL6 (UniProt Q9H0F7) | 0.197 | 0.233 | 0.202
31 | ILKAP (UniProt Q9H0C8) | 0.624 | 0.292 | -0.406
32 | GPX8 (UniProt Q8TED1) | -4.37 | -5.4 | 0.394
33 | RRN3 (UniProt Q9NYV6) | -0.321 | -0.104 | -2.42
34 | DNASE2 (UniProt O00115) | 0.424 | 0.747 | 0.114
35 | PARVA (UniProt Q9NVD7) | 0.468 | 0.672 | 1.14
36 | FAM175B (UniProt Q15018) | 0.515 | 0.293 | -0.57
37 | RTN4RL2 (UniProt Q86UN3) | -1.87 | -1.25 | 0.417
38 | HSP90AA1 (UniProt P07900) | 0.0337 | 0.301 | 0.428
39 | UNG (UniProt P13051) | -0.772 | -1.08 | -0.665
40 | FASTKD3 (UniProt Q14CZ7) | -0.0188 | -0.107 | -0.00397
41 | RPL30 (UniProt P62888) | 0.771 | 0.183 | -0.666
42 | LRWD1 (UniProt Q9UFC0) | -0.0805 | -0.0419 | -0.324
43 | HENMT1 (UniProt Q5T8I9) | -0.37 | -0.0316 | 0.197
44 | DRAP1 (UniProt Q14919) | -0.781 | -0.122 | -0.503
45 | PDDC1 (UniProt Q8NB37) | 0.604 | -0.174 | -2.18
46 | C5ORF51 (UniProt A6NDU8) | -1 | -0.695 | -0.796
47 | PIP4K2A (UniProt P48426) | 0.195 | 0.103 | -0.102
48 | ATP5B (UniProt P06576) | -0.424 | -0.332 | 0.0331
49 | NEK9 (UniProt Q8TD19) | -0.25 | -0.366 | 0.719
50 | TM9SF4 (UniProt Q92544) | -0.593 | -0.263 | 0.734
51 | AMPD2 (UniProt Q01433) | 0.297 | -0.25 | 0.172
52 | RPN2 (UniProt P04844) | -2.41 | -1.79 | 0.141
53 | SRRT (UniProt Q9BXP5) | 0.06 | 0.206 | -0.751
54 | SUGT1 (UniProt Q9Y2Z0) | 0.611 | 0.585 | 0.388
55 | HPCAL1 (UniProt P37235) | 1.09 | 1.31 | 0.342

— the supplement of paper PMC12463676, “Small-molecule dissolution of stress granules by redox modulation benefits ALS models” (Nature Chemical Biology, 2025)
